Test results published in patent US12202834B2, “Solid state forms of oclacitinib maleate” (VationPharma B.V., priority 2019, dated 2025).
Values joined by “and” are separate entries in the source; they are usually repeats but may differ in a detail not shown here. Equal values may be shown once. Where a name gives a salt, the structure may show the parent alone.

Tests used:
Type in all cases: physicochemical
[1] = Thermodynamic solubility test (saturated solution, gravimetric); settings: for Solubility, Average: average of three determinations; for Solubility compared to oclacitinib maleate form A: form A normalized to 100% (FIG. 16); for Solubility: single determination, saturated solution, 15 minutes stirring (600 rpm), 15 minute equilibrium, 0.2 μm filter
Procedure: The thermodynamic solubility of different forms of oclacitinib maleate was tested by generating a saturated solution for each form (i.e. oclacitinib maleate form A, amorphous oclacitinib maleate and monohydrate form of oclacitinib maleate). After 15 minutes of stirring (600 rpm) and further 15 minute of an equilibrium phase the solution was filtrated over an 0.2 μm syringe filter into a vial with a known weight.
Subsequently, the solvent was allowed to evaporate and the vial was then weighted again.

[2] = Stability tests of solid forms (storage, solid form analysed by XRPD); settings: for Relative humidity at which the solid form is stable / can be stored: general statement in description
Procedure: The stability of the solid forms of oclacitinib obtained was tested at three different conditions, i.e. storage at 25° C. at 0% relative humidity, 40° C. at 75% rH and 25° C. at 100% rH. Alternatively or additionally, the stability of the solid forms of oclacitinib obtained was tested at 25° C. at 25% rH.

[3] = Hygroscopicity of solid state form; settings: general statement in description
[4] = relatively high humidity, 25° C. at 100% rH
[5] = relatively high humidity, 40° C. at 75% rH
[6] = relatively low humidity, 25° C. at 0% rH

| Compound | Solubility, Average [1] | Solid form found after storage ([2]; 25° C./0% rH, Week 1) | Solid form found after storage ([2]; 25° C./0% rH, Week 4) | Solid form found after storage ([2]; 25° C./100% rH, Week 1) | Solid form found after storage ([2]; 25° C./100% rH, Week 4) | Solid form found after storage ([2]; 40° C./75% rH, Week 1) | Solid form found after storage ([2]; 40° C./75% rH, Week 4) | Solubility [1] | further results |
| --- | --- | --- | --- | --- | --- | --- | --- | --- | --- |
| CNS(=O)(=O)C[C@H]1CC[C@H](N(C)c2ncnc3[nH]ccc23)CC1 [Form A, N-methyl(4-(methyl(7H-pyrrolo[2,3-d]pyrimidin-4-yl)amino)cyclohexyl)methanesulfonamide maleic acid salt, reference compound] | 17.135 mg/mL |  |  |  |  |  |  | 16.914 mg/mL and 16.690 mg/mL and 17.802 mg/mL | Relative humidity at which the solid form is stable / can be stored ([2]; listed as oclacitinib maleate form A): at most 30% |
| CNS(=O)(=O)C[C@H]1CC[C@H](N(C)c2ncnc3[nH]ccc23)CC1 [example 8, amorphous oclacitinib maleate] |  |  |  |  |  |  |  |  | Change of solid state on storage (XRPD) ([2]; 25° C. at 0% rH, after 2 weeks): remains stable; Change of solid state on storage (XRPD) ([2]; 25° C. at 25% rH, 3 weeks): does not show any change of solid state; Change of solid state on storage (XRPD) ([2]; 25° C. at 100% rH, after 2 weeks): conversion (intermediate graphs) of the amorphous phase to the monohydrate form of oclacitinib maleate; Change of solid state on storage (XRPD) ([2]; 40° C. at 75% rH, after 2 weeks): conversion (intermediate graphs) of the amorphous phase to the monohydrate form of oclacitinib maleate |
| CNS(=O)(=O)C[C@H]1CC[C@H](N(C)c2ncnc3[nH]ccc23)CC1 [example 9, amorphous oclacitinib maleate] |  |  |  |  |  |  |  |  | Change of solid state on storage (XRPD) ([2]; 25° C. at 25% rH, 3 weeks): mixture (upper graph) comprising amorphous oclacitinib maleate and oclacitinib maleate form A |
| CNS(=O)(=O)C[C@H]1CC[C@H](N(C)c2ncnc3[nH]ccc23)CC1 [tetramethyl urea solvate form of oclacitinib maleate] |  | TMU solvate | TMU solvate | Form B | Form B | Form B | Form B |  | Solid form found after storage ([2]; 25° C./0% rH, Week 12): TMU solvate; Solid form found after storage ([2]; 25° C./100% rH, Week 12): Form B; Solid form found after storage ([2]; 40° C./75% rH, Week 12): Form B; Stability of solid form [2, 4]: converses into oclacitinib maleate form B; Stability of solid form [2, 5]: converses into oclacitinib maleate form B; Stability of solid form [2, 6]: is stable |

More lines, main results first:

| Solubility, Average [1] | Solid form found after storage ([2]; 25° C./0% rH, Week 1) | Solid form found after storage ([2]; 25° C./0% rH, Week 4) | Solid form found after storage ([2]; 25° C./100% rH, Week 1) | Solid form found after storage ([2]; 25° C./100% rH, Week 4) | Solid form found after storage ([2]; 40° C./75% rH, Week 1) | Solid form found after storage ([2]; 40° C./75% rH, Week 4) | Compound | Solubility [1] | further results |
| --- | --- | --- | --- | --- | --- | --- | --- | --- | --- |
| 37.834 mg/mL |  |  |  |  |  |  | CNS(=O)(=O)C[C@H]1CC[C@H](N(C)c2ncnc3[nH]ccc23)CC1 [Amorphous, amorphous oclacitinib maleate] | 37.095 mg/mL and 37.430 mg/mL and 38.976 mg/mL | Solubility compared to oclacitinib maleate form A ([1]; listed as amorphous form of oclacitinib maleate): more than twice as soluble |
| 8.994 mg/mL | Monohydrate | Monohydrate | Monohydrate | Monohydrate | Monohydrate | Monohydrate | CNS(=O)(=O)C[C@H]1CC[C@H](N(C)c2ncnc3[nH]ccc23)CC1 [monohydrate form of oclacitinib maleate] | 9.053 mg/mL and 9.047 mg/mL and 8.884 mg/mL | Solubility compared to oclacitinib maleate form A [1]: halved; Stability of solid form ([2]; all three storage conditions (25° C./0% rH, 40° C./75% rH, 25° C./100% rH)): stable under all storage conditions; Stability of solid state with respect to relative humidity, in words ([2]; low (<50% rH) and high (>50% rH) relative humidity): stable by any relative humidity of the surrounding air |
|  | Form B | Form A | Form B | Form B | Form B | Form B | CNS(=O)(=O)C[C@H]1CC[C@H](N(C)c2ncnc3[nH]ccc23)CC1 [oclacitinib maleate form B] |  | Solid form found after storage ([2]; 25° C./0% rH, Week 12): Form A; Solid form found after storage ([2]; 25° C./100% rH, Week 12): Form B; Solid form found after storage ([2]; 40° C./75% rH, Week 12): Form B; Relative humidity at which the solid form is stable / can be stored [2]: at least 30%; Stability of solid form [2, 4]: is stable; Stability of solid form [2, 5]: is stable; Stability of solid form [2, 6]: converses into oclacitinib maleate form A; Hygroscopicity [3]: non-hygroscopic |
